Results on three compounds are retold here after patent US20220251036A1, “DIFLUOROHALOALLYLAMINE SULFONE DERIVATIVE INHIBITORS OF LYSYL OXIDASES, METHODS OF PREPARATION, AND USES THEREOF” (PHARMAXIS LTD., priority 2019, published 2022).

A word on the IC50: it is the concentration that gives 50% inhibition.

The target in one series is T1, recombinant human DAO (Homo sapiens, UniProt P19801).
T1 construct: Gift: Prof; Boehm, Department of Clinical Pharmacology, Medical University, Vienna
T1 sequence (P19801 20-751): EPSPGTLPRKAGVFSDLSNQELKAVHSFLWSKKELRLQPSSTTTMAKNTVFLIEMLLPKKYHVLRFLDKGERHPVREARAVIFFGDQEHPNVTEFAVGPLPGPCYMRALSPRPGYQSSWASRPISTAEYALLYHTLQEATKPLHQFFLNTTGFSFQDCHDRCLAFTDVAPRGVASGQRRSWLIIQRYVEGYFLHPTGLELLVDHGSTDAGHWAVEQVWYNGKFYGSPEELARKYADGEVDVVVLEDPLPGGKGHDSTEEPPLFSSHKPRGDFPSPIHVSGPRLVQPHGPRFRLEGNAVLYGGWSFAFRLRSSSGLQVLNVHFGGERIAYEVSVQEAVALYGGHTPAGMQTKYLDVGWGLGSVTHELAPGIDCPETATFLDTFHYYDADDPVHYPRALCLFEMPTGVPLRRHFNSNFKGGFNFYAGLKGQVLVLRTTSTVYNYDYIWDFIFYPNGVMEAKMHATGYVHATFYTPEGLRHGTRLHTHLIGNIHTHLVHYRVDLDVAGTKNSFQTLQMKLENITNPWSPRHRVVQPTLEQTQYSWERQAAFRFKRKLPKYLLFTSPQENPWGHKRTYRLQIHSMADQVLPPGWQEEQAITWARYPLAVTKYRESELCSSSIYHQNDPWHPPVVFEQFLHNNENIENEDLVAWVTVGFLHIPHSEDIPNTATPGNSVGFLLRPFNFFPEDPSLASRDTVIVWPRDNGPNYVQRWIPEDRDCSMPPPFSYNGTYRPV
Description: DAO inhibition. The class given is biochemical. The note with it: 2 hours incubation. How it is done:
The specificity of the compounds of this invention was tested by determining their ability to inhibit DAO activity in vitro, using recombinant human DAO (100 ng/mL; kindly provided by Prof. Boehm, Department of Clinical Pharmacology, Medical University, Vienna). The assay was performed in a similar way as for human SSAO/VAP-1 (Example 8) except, the incubation with the test compounds was extended to 2 hours, and the substrate […] was used at 100 μM in place of benzylamine.

Series [1] is described as follows: Ultraviolet (UV) absorbance. Format: physicochemical. The note with it: from 290 nm to 680 nm, Shimadzu LCMS 2020. An excerpt: Minimising UV light absorption of drugs may avoid risk of phototoxicity and photoallergy. For induction of phototoxicity and/or photoallergy, a chemical must absorb light within the range of natural sunlight (290 to 700 nm). Therefore, compounds with no absorbance across the natural sunlight spectrum are advantageous.

Series [2] in a line: Chemical stability in topical formulation. The class given is physicochemical. The text has this:
The stability of a drug product formulation can have a significant impact on the length and cost of drug development, the nature of the studies required to support regulatory submissions, and, ultimately, safety and approvability. It is important to minimize the amount of impurities or degradation products that form over time due to interactions between the various ingredients in a formulation. This can be particularly important in compositions that are designed to increase skin permeability.

The next series concerns skin fibrosis. Description: Mouse model of sclerosis (bleomycin-induced skin fibrosis). The class given is in vivo, male C57BL/6. The note with it: […] in a topical formulation from day 3, histology after 21 days. The procedure:
Subcutaneous bleomycin (0.1 U/kg) was administered every second day (for 21 days total) to male C57BL/6 to induced skin fibrosis as a model of sclerosis. […] Histology was completed after 21 days.

A further series concerns scars. Put plainly: Excision injury model in pigs. Format: in vivo. The note with it: daily for 12 weeks. The procedure: Eight full thickness excisions (5×2 cm^2) were made on 5 female juvenile pigs (each weighing 18-20 kg) for a total of 40 injury sites. The entire epidermis and dermal layers of skin were removed by a plastic surgeon in one operation under anaesthesia leaving excisions approximately 5-8 mm in depth. Wounds were dressed and anti-anxiety jackets (Thundershirt; RSPCA) provided to cover wounds. Analgesia was given—buprenorphine injection and fentanyl patch (50 μg/hr) for 10 days, post-surgery—and animals were allowed to recover. The dressings were changed at regular intervals to protect the wounds and prevent infection. Daily treatment started 14 days post-surgery and continued for 12 weeks. […] The surgeons ranked scars in each set of 4 from best to worst (0-3) and the scores for each scar were added and analysed.

For the next series, the system named is LOX. Description: Lysyl oxidase activity in rat skin after topical administration. Format: in vivo. The note with it: for dorsal skin LOX activity compared to the placebos: rats, topical. The procedure:
Dorsal and ventral skin from rats treated by topical application of compound 1 were semi-defrosted at ice-cold temperature and three 3 mm punches of the skin were taken using a tissue puncher. The core sample was microdissected to leave only the epidermal and dermal layers. All other layers were removed. […] The tissue punch was placed in a 1.5 mL Eppendorf tube and snap-frozen in liquid nitrogen. A mortar and pestle stored at −80° C. was then used to pulverize skin tissue. The pulverized sample was further washed in 1 mL of ice-cold washing buffer ((0.15 M NaCl, 50 mM sodium borate, pH 8.0, with PMSF: Sigma P7626, 0.25 mM, and Aprotinin: Sigma A6279, 1 μL per mL). The tissue buffer was centrifuged (20000 g for 10 minutes at 4° C.), and the supernatant was discarded. Fresh wash buffer (1 mL) was added and the Eppendorf tube was agitated for 5 minutes at 4° C. on a vortex shaker. Washing was repeated two more times. After the last wash, the supernatant was completely removed. The rat dorsal skin pellet was re-suspended in 6 M urea 50 mM sodium borate buffer, according to sample weight to achieve final urea concentration of 4.5 M. The extraction buffer contains protease inhibitors; aprotinin and PMSF as above. Each homogenate was well-mixed by continuous vortexing at 4° C. for a 3 hour extraction. After 3 hours, […] 50 mM sodium borate buffer was added to each sample according to sample size to achieve the final urea concentration of 2.4 M. Protease inhibitors—aprotinin and PMSF—are present. The mixture was again centrifuged at (20000 g at 4° C. for 10 minutes) and the supernatant was collected in a clean, cold eppendorf. To 50 μl of sample, pargyline (final concentration at 0.5 mM) and mofegiline (final concentration at 1 μM) were added. Enzyme mix (25 μL) was transferred to the test plate with or without […] (0.5 μl 30 mM) and incubated at 37° C. for 30 minutes. Reaction mix (25 μL) is added to each well, plate fluorescence is measured every 2.5′ with or without 100 μM BAPN for the low controls (Ex: 544 nm/Em: 590 nm/gain: 1260 at 37° C.).

As for `N#CCCN` [BAPN, β-aminopropionitrile, reference compound], the half-maximal inhibitory concentration (IC50) at recombinant human DAO is more than 30 µM.
In the case of `CNc1ccccc1S(=O)(=O)C(F)(F)/C(F)=C/CN` [Compound 4, (Z)-2-((4-amino-1,1,2-trifluorobut-2-en-yl)sulfony1)-N-methylaniline], the IC50 at recombinant human DAO is more than 30 µM.
In the case of `NC/C=C(\F)C(F)(F)S(=O)(=O)c1ccccc1` [Compound 1, (Z)-3,4,4-trifluoro-4-(phenylsulfonyl)but-2-en-1-amine], the UV absorbance result in series [1] is “no absorbance”. Also, the “% Area at 265 nm” value in series [2] (6% in formulation 2, 2-8° C., 161 days) is recorded as 100.00 % Area; in series [2] (6% in formulation 2, 40° C., 161 days), 99.66 % Area; in series [2] (6% in formulation 2, reference sample) it was 100.00 % Area; in series [2] (6% in formulation 2, rt, 161 days), 100.00 % Area; in series [2] (8% in formulation 2, 2-8° C., 161 days) it was 99.91 % Area; in series [2] (8% in formulation 2, 40° C., 161 days) it was 99.36 % Area. Besides, the “% Area at 265 nm” value in series [2] (8% in formulation 2, reference sample) stood at 100.00 % Area; in series [2] (8% in formulation 2, rt, 161 days), 99.74 % Area. Further, the compound peak percentage entry in series [2] (topical formulation 2, all the tested conditions) was “above 99.5%”. Moreover, the “average LOX score” value in the series with skin fibrosis is on record as “significant improvement”. In the series with skin fibrosis, the average collagen score entry is given as “significant improvement”. The composite skin score result in the series with skin fibrosis was “significant improvement”. Besides, in the series with scars (pigs, 0, 0.5, 1.5 and 3% oil in water cream), the scar appearance entry is “substantial, dose-dependent improvement”. The “scar visible versus control scars” value in the series with scars (pigs, 3% oil in water cream) is given as “significantly less scar visible”. Moreover, the “dorsal skin LOX activity compared to the placebos” value in the series on LOX (cream containing 1% Compound 1, 400 mg/rat) was “significantly lower”; with LOX (cream containing 3% Compound 1, 200 mg/rat), “significantly lower”. In addition, the “LOX activity in the skin of rats” value in the series on LOX (topical application of cream versus control (FIG. 3)) is listed as “reduction”.
